Consider 24 compounds from US20250082633A1, “COMPOUNDS AND METHODS FOR MODULATING SPLICING” (REMIX THERAPEUTICS INC., priority 2021, published 2025).

Where only a bound is given, the exact number is not on record here.

As usually defined, the IC50 is the midpoint of a concentration-inhibition curve. Higher therefore signals weaker potency.

The subject of one experiment is Target C. The experiment is described as follows: HiBit protein abundance assay, Target C. Format: cell-based. The settings on record: Homo sapiens; K562 HiBiT-modified cells, 24 hours, luminescence. The method, then:
(§1) Compounds described herein were used to screen for effects on quantitative protein abundance using a HiBit assay system (Promega). Quantitative protein abundance was determined by measuring the protein levels of HiBit-tagged protein targets expressed in cell culture via luminescence using the Nano-Glo HiBiT Lytic Detection System, which uses a split complementation assay format to reconstitute NanoBiT enzyme to generate a luminescent signal. A protein abundance assay was developed such that endogenous protein targets could be modified with the HiBiT peptide tag and their abundance could be assessed after compound treatment. Briefly, K562 cell lines containing a HiBiT-modification were treated with various compounds described herein (e.g., compounds of Formulas (I), (II), or (III)). After treatment for 24 hours, the protein abundance of a specific target was determined by measuring luminescence. • Promega Nano-Glo HiBiT Lytic Detection System (cat #N3030) • Corning 384-well TC-treated microplates (cat #3570) • Synthego Engineered Cells Knock-In Clones Cells were maintained in IMDM with 10% FBS. Before the assay, cells were diluted with phenolphthalein-free growth media (IMDM+1% FBS media) and were seeded in a 384-well plate at a density of 10000 cells/well (for each cell line listed in Table 6). Each compound was prepared as a 10-point 3-fold serial dilution in DMSO with the top dose at a final concentration of 10 μM in the well. Unmodified K562 cells were added at the previously specified density with DMSO to serve as an assay baseline and positive control (PC) and DMSO only with the respective modified cell lines was added to the negative control (NC) columns. Final DMSO concentration was kept at or below 0.25%. Treated cell plates were placed in an incubator at 37° C. with 5% CO2 for 24 hours. After 24 hours, 25 μL of Complete HiBit Lytic reagent was added to each well at room temperature (e.g. one plate requiring 10 mL Lytic Buffer, 100 μL LgBiT Protein, 200 μL Lytic Substrate), shaken for 5 minutes at 600 RPM, then left to sit for 10 minutes for signal to stabilize before reading on a Spark Cyto plate reader (Tecan) with a 500 ms measurement time. To determine compound effects on protein abundance of each target in Table 6, the percent response for each respective cell line was calculated at each compound concentration as follows: For the normalized response at each concentration, a four-parameter logistical regression was fit to the data and the response was interpolated at the 50% value to determine a concentration for protein abundance at 50% (IC50) the untreated control.

The subject of experiment [1] is HiBiT-tagged HTT protein in K562 cells. The experiment is described as follows: HiBit protein abundance assay, HTT. Format: cell-based, human. To be noted: K562 HiBiT-modified cells, 24 hours, luminescence. The method, then:
as §1, with “Clones [table]” for “Clones”

Turning to `CCN1CCC(n2cc3cc(-c4cc(C)c5nc(C)cn5n4)cc(F)c3n2)CC12CC2` (centres unmarked) [Compound 177, 6-[2-(4-ethyl-4-azaspiro[2.5]octan-7-yl)-7-fluoro-indazol-5-yl]-2,8-dimethyl-imidazo[1,2-b]pyridazine], the IC50 (in the experiment with Target C; in experiment [1]) was under 100 nM each time.

On to `Cc1ccc2cc(-c3cc(F)c4nn(C5CCNCC5)cc4c3)ccc2n1` [Compound 163, 6-[7-fluoro-2-(4-piperidyl)indazol-5-yl]-2-methyl-quinoline], for which the IC50 (in the experiment with Target C; in experiment [1]) was 1000 to 10000 nM each time.

For `Cc1cc(-c2cc(F)c3nn(C4CCNCC4)cc3c2)cc2cn(C)nc12` [Compound 133, 5-(2,7-dimethylindazol-5-yl)-7-fluoro-2-(4-piperidyl)indazole], the IC50 (in the experiment with Target C; in experiment [1]) was under 100 nM each time.

As to `CCN1CCC(n2cc3cc(-c4cc(F)c5nn(C)cc5c4)cc(F)c3n2)CC1` [Compound 104, 2-(1-ethyl-4-piperidyl)-7-fluoro-5-(7-fluoro-2-methyl-indazol-5-yl)indazole], the concentration for half-maximal inhibition (IC50) (in the experiment on Target C; in experiment [1]) was 100 to 1000 nM throughout.

With `Cc1cn2nc(-c3cc(F)c4nn(C5CCNC6(CC6)C5)cc4c3)cc(C)c2n1` (centres unmarked) [Compound 171, 6-[2-(4-azaspiro[2.5]octan-7-yl)-7-fluoro-indazol-5-yl]-2,8-dimethyl-imidazo[1,2-b]pyridazine], the IC50 (in the experiment with Target C; in experiment [1]) was under 100 nM each time.

For `Cc1cn2cc(-c3cc(F)c4nn(C5CCNCC5)cc4c3)cc(C)c2n1` [Compound 125, 5-(2,8-dimethylimidazo[1,2-a]pyridin-6-yl)-7-fluoro-2-(4-piperidyl)indazole], the IC50 (in the experiment on Target C; in experiment [1]) was under 100 nM in each case.

Take `Cc1cn2nc(-c3cc(F)c4nn(C5CCNC6(CCC6)C5)cc4c3)cc(C)c2n1` (centres unmarked) [Compound 189, 6-[2-(5-azaspiro[3.5]nonan-8-yl)-7-fluoro-indazol-5-yl]-2,8-dimethyl-imidazo[1,2-b]pyridazine]: the IC50 (in the experiment on Target C; in experiment [1]) was under 100 nM each time.

On to `Cc1cn2nc(-c3cc(F)c4nn(C5CCNCC5F)cc4c3)cc(C)c2n1` (centres unmarked) [Compound 166, 6-[7-fluoro-2-(3-fluoro-4-piperidyl)indazol-5-yl]-2,8-dimethyl-imidazo [1,2-b]pyridazine], for which the IC50 in the experiment on Target C was 100 to 1000 nM; in experiment [1], under 100 nM.

For the compound `Cn1cc2cc(-c3ccc4nn(C5CCNCC5)cc4n3)c(O)c(F)c2n1` [Compound 107, 7-fluoro-2-methyl-5-[2-(4-piperidyl)pyrazolo [4,3-b]pyridin-5-yl]indazol-6-ol], the IC50 (with Target C; in experiment [1]) was 100 to 1000 nM throughout.

For `Cc1cn2nc(-c3ccc4nn(C5CCNCC5)cc4n3)cc(C)c2n1` [Compound 138, 2,8-dimethyl-6-[2-(4-piperidyl)pyrazolo[4,3-b]pyridin-5-yl]imidazo[1,2-b]pyridazine], the IC50 (in the experiment with Target C; in experiment [1]) was 100 to 1000 nM each time.

In the case of `Cn1cc2cc(-c3ccc4cn(C5CCNCC5)nc4c3)cc(F)c2n1` [Compound 148, 7-fluoro-2-methyl-5-[2-(4-piperidyl)indazol-6-yl]indazole], the IC50 in the experiment on Target C was over 10000 nM; in experiment [1], 1000 to 10000 nM.

In the case of `Cn1cc2cc(-c3cc(Cl)c4nn(C5CCNCC5)cc4n3)c(O)cc2n1` [Compound 141], the 50% inhibitory concentration (IC50) (with Target C; in experiment [1]) was over 10000 nM throughout.

On to `Cc1cn2cc(-c3cc(F)c4nn(C5CCNCC5)cc4c3)nc(C)c2n1` [Compound 132, 6-[7-fluoro-2-(4-piperidyl)indazol-5-yl]-2,8-dimethyl-imidazo[1,2-a]pyrazine], for which the IC50 (in the experiment with Target C; in experiment [1]) was 100 to 1000 nM in each case.

Take `Cc1cn2nc(-c3cc4cn(C5CCNCC5)nc4c(O)n3)cc(C)c2n1` [Compound 139, 5-(2,8-dimethylimidazo[1,2-b]pyridazin-6-yl)-2-(4-piperidyl)-6H-pyrazolo[3,4-c]pyridin-7-one]: the IC50 (in the experiment with Target C; in experiment [1]) was 100 to 1000 nM each time.

Take `Cn1cc2cc(-c3ccc4nn(C5CCNCC5)cc4n3)c(O)cc2n1` [Compound 110, 2-methyl-5-[2-(4-piperidyl)pyrazolo[4,3-b]pyridin-5-yl]indazol-6-ol]: the IC50 (with Target C; in experiment [1]) was 100 to 1000 nM each time.

Regarding `COc1cc(-c2cc(C)c3nc(C)cn3n2)cc2cn(C3CCNCC3)nc12` [Compound 155, 6-(7-methoxy-2-(piperidin-4-yl)-2H-indazol-5-yl)-2,8-dimethylimidazo [1,2-b]pyridazine], the figures for the IC50 (with Target C; in experiment [1]) were 100 to 1000 nM and under 100 nM, respectively.

With `Fc1cc(-c2ccc3ncccc3c2)cc2cn(C3CCNCC3)nc12` [Compound 162, 6-[7-fluoro-2-(4-piperidyl)indazol-5-yl]quinoline], the IC50 (in the experiment with Target C; in experiment [1]) was 1000 to 10000 nM each time.

As to `Cc1ccc2nc(-c3cc(F)c4nn(C5CCNCC5)cc4c3)ccc2n1` [Compound 157, 2-[7-fluoro-2-(4-piperidyl)indazol-5-yl]-6-methyl-1,5-naphthyridine], the IC50 in the experiment with Target C is over 10000 nM; in experiment [1], 1000 to 10000 nM.

For the compound `Cc1cn2nc(-c3cc(F)c4nn(C5CCN(CCO)C6(CC6)C5)cc4c3)cc(C)c2n1` (centres unmarked) [Compound 180, 2-[7-[5-(2,8-dimethylimidazo[1,2-b]pyridazin-6-yl)-7-fluoro-indazol-2-yl]-4-azaspiro[2.5]octan-4-yl]ethanol], the IC50 (in the experiment with Target C; in experiment [1]) was under 100 nM throughout.

For the compound `Cc1nc2c(C)cc(-c3cc(F)c4nn(C5CCNCC5)cc4c3)cc2o1` [Compound 137, 6-[7-fluoro-2-(4-piperidyl)indazol-5-yl]-2,4-dimethyl-1,3-benzoxazole], the IC50 (in the experiment with Target C; in experiment [1]) was under 100 nM throughout.

As for `Cc1c(O)c(-c2ccc3nn(C4CCNCC4)nc3n2)cc2cn(C)nc12` [Compound 113, 2,7-dimethyl-5-[2-(4-piperidyl)triazolo[4,5-b]pyridin-5-yl]indazol-6-ol], the IC50 (with Target C; in experiment [1]) was 1000 to 10000 nM in each case.

On to `COc1cc2nn(C3CCNCC3)cc2cc1-c1cc(C)c2nc(C)cn2n1` [Compound 159, 6-(6-methoxy-2-(piperidin-4-yl)-2H-indazol-5-yl)-2,8-dimethylimidazo[1,2-b]pyridazine], for which the IC50 (in the experiment with Target C; in experiment [1]) was over 10000 nM each time.

Take `Cc1cn2nc(-c3cc(F)c4nn(C5CCN(C6CCC6)C6(CC6)C5)cc4c3)cc(C)c2n1` (centres unmarked) [Compound 186, 6-[2-(4-cyclobutyl-4-azaspiro[2.5]octan-7-yl)-7-fluoro-indazol-5-yl]-2,8-dimethyl-imidazo[1,2-b]pyridazine]: the IC50 (with Target C; in experiment [1]) was under 100 nM in each case.

As for `Cc1cn2nc(-c3cc(F)c4nn(CC5CCNCC5)cc4c3)cc(C)c2n1` [Compound 212, 6-[7-fluoro-2-(4-piperidylmethyl)indazol-5-yl]-2,8-dimethyl-imidazo[1,2-b]pyridazine], the IC50 in the experiment with Target C was under 100 nM.
